Results taken from US20130184251A1, “HETEROAROMATIC AND AROMATIC PIPERAZINYL AZETIDINYL AMIDES AS MONOACYLGLYCEROL LIPASE INHIBITORS” (Janssen Pharmaceutica, NV, priority 2009, published 2013).
Read-outs that look alike come from different tables or passages of the source.

Key:
HeLa cells = experiment: 2-AG accumulation assay using HeLa cells; type: cell-based; details: for Emax at 10 µM: Homo sapiens; for Ex. 5 % MAFP @10 μM: 10 μM compound
Male Sprague Dawley rats [1] = experiment: Chronic constriction injury (CCI)-induced model of neuropathic pain, acetone-induced hypersensitivity; type: in vivo; details: HCl salt, 30 mg/kg oral dosing in 20% HPbCD
From the text: Male Sprague Dawley rats (225-450 g; n=5-8/treatment) were used to evaluate the ability of selected compounds of the Formula (I) to reverse CCI-induced cold hypersensitivity. Four loose ligatures of 4-0 chromic gut were surgically placed around the left sciatic nerve under inhalation anesthesia as described by Bennett et al (Bennett G J, Xie Y K. Pain 1988, 33(1): 87-107). Fourteen to 35 days following CCI surgery, subjects were placed in elevated observation chambers containing wire mesh floors, and five applications of acetone (0.05 mL/application separated by approximately 5 minutes) were spritzed onto the plantar surface of the paw using a multidose syringe. An abrupt withdrawal or lifting of the paw was considered a positive response. The number of positive responses was recorded for each rat over the five trials. Following baseline withdrawal determinations, compounds of formula (I) were administered in an appropriate vehicle, such as hydroxypropyl-β-cyclodextrin (HP β CD), methylcellulose, Methocel, 10% Solutol, or H2O, or the like, by the appropriate route, i.p. or p.o. The number of withdrawals were re-determined 1 to 4 h after compound administration. Results are presented as a percent inhibition of shakes, which was calculated for each subject as [1-(test compound withdrawals/pre-test withdrawals)]×100 and then averaged by treatment.

Male Sprague Dawley rats [2] = experiment: Visceral hyperalgesia model (colorectal distension, zymosan colitis); type: in vivo; details: 30 mg/kg, s.c.; 20 min after dosing; vehicle-treated rats 239.6±28.9% of control
Experimental: This protocol uses barostat-controlled, isobaric colorectal distensions (CRD) in rats to evaluate the potency and efficacy of test compounds in treating visceral hyperalgesia. Male Sprague Dawley rats, weighing 275-350 g, (Charles River Labs) were housed 2-4/cage in a temperature and humidity controlled room with a 12 h/12 h light/dark cycle and ad libitum access to food and water. One day after release from quarantine, rats were acclimated to progressively longer (30 min and, 4 h later, 45 min) periods of simple restraint in plexiglass devices (G-3, rat ECU; Braintree Scientific; Braintree Mass.). The rats were returned to their home cage overnight. […] The balloon pressure, which represents intracolonic pressure, was continuously recorded. […]
The following morning, colitis was induced by the intracolonic instillation of a 1.5-mL bolus of 2.5% (w/v) zymosan A (from Saccharomyces cerevisiae; Sigma Chemical Co., St. Louis) in 30% ethanol under light 70% CO2: 30% O2 anesthesia. […] The identical CRD stimuli were applied, and manometric VMRs were recorded and analyzed as described for the control phase of the experiment. […] CRD stimuli at 45 mmHg elicited peak responses in the control (pre-zymosan) condition; therefore, the responses of each rat were calculated as a percent of the manometric VMR at that pressure, recorded the day before induction of colitis; thus, each rat served as its own control. […]

rats = experiment: CFA-induced paw radiant heat hypersensitivity; type: in vivo, rat; details: HCl salt in 20% HPβCD, treatment time 30 min
Experimental: Each rat was placed in a test chamber on a thermally controlled glass surface and allowed to acclimate for approximately 10 min. A radiant thermal stimulus (beam of light) was then focused through the glass onto the plantar surface of the hind paw. The thermal stimulus was automatically shut off by a photoelectric relay when the paw was moved or when the cut-off time was reached (20 sec). An initial (baseline) response latency to the thermal stimulus was recorded for each animal prior to the injection of CFA. 24 h following intraplantar CFA injection, the response latency to the thermal stimulus was then re-evaluated and compared to the animal's baseline response time. […] Immediately following the post-CFA latency assessment, test compound or vehicle (usually solutol, hydroxypropyl methylcellulose, hydroxypropyl beta-cyclodextrin or PEG-400) was administered i.p. or p.o. to rats. Post-compound treatment withdrawal latencies were assessed at fixed time intervals, typically 30, 60 and 120 minutes. The percent reversal of hypersensitivity is calculated according to the following formula: % reversal=(post dose latency-predoselatency)/(baseline (pre CFA) latency-predose latency)×100.
Compound #12 (as its corresponding HCl salt) was administered in a solution of 20% HPβCD, at a dose of 30 mg/kg, i.p. and a treatment time of 30 min.

[3] = HeLa cell homogenate, 2-AG accumulation relative to MAFP, compound @10 μM (second of two columns with the same head), read-out: Ex. 5 % MAFP @10 μM (second column)
[4] = HeLa cell homogenate, 2-AG accumulation relative to MAFP, compound @10 μM as printed (first of two columns with the same head), read-out: Ex. 5 % MAFP @10 μM (first column)
[5] = 2-AG relative to MAFP, HeLa homogenate

SMILES: O=C(c1ccc(-c2ccccc2)cc1)N1CC(N2CCN(c3ncccn3)CC2)C1 [Compound #12, Biphenyl-4-yl-[3-(4-pyrimidin-2-yl-piperazin-1-yl)-azetidin-1-yl]-methanone]
- Emax at 10 µM (HeLa cells; [3]): 108%
- Emax at 10 µM (HeLa cells; [4]): 63.1%
- Percent Inhibition (of shakes) (Male Sprague Dawley rats [1]; pretreatment time 1 hr): 57.1%
- Percent Inhibition (of shakes) (Male Sprague Dawley rats [1]; pretreatment time 2 hr): 74.3%
- Percent Inhibition (of shakes) (Male Sprague Dawley rats [1]; pretreatment time 3 hr): 80.0%
- Percent Inhibition (of shakes) (Male Sprague Dawley rats [1]; pretreatment time 4 hr): 48.6%
- hyperalgesic response (manometric VMR) to 45 mmHg CRD (Male Sprague Dawley rats [2]): 103.8±22.1 % of control
- reversal of hypersensitivity (rats; 30 mg/kg, i.p.): 90.3%
- ED50 (rats; Rattus norvegicus, ip, 0.5 h): 0.9 mg/kg

SMILES: O=C(c1ccc(-n2cccc2)cc1)N1CC(N2CCN(c3ncccn3)CC2)C1 [compound 25, 2-[4-(1-{[4-(1H-Pyrrol-1-yl)phenyl]carbonyl}azetidin-3-yl)piperazin-1-yl]pyrimidine]
- Emax at 10 µM (HeLa cells; [3]): 87.7%

SMILES: O=C(c1ccc(Oc2ccccc2)cc1)N1CC(N2CCN(c3ncccn3)CC2)C1 [Compound #20, 2-(4-{1-[(4-Phenoxyphenyl)carbonyl]azetidin-3-yl}piperazin-1-yl)pyrimidine]
- Emax at 10 µM (HeLa cells; [3]): 71.9%

SMILES: O=C(c1ccc2nc(C3CCCCC3)oc2c1)N1CC(N2CCN(c3ccccn3)CC2)C1 [Compound #211]
- Ex. 5 % MAFP @ 1 μM (HeLa cells; 1 μM compound, 2-AG relative to MAFP, HeLa homogenate): 39.7 % MAFP
- Ex. 5 % MAFP @10 μM (HeLa cells; [5]): 100.8 % MAFP

SMILES: Cc1c(C(=O)N2CC(N3CCN(c4ccccn4)CC3)C2)nn(-c2ccc(Cl)cc2Cl)c1-c1ccc(Cl)cc1 [compound 39, 1-(1-{[5-(4-Chlorophenyl)-1-(2,4-dichlorophenyl)-4-methyl-1H-pyrazol-3-yl]carbonyl}azetidin-3-yl)-4-pyridin-2-ylpiperazine]
- Emax at 10 µM (HeLa cells; HeLa, read-out: Ex. 5 % MAFP @10 μM): 87.6%

SMILES: CCCCc1ccc(C(=O)N2CC(N3CCN(c4ccccn4)CC3)C2)cc1 [compound 35, 1-{1-[(4-Butylphenyl)carbonyl]azetidin-3-yl}-4-pyridin-2-ylpiperazine]
- Emax at 10 µM (HeLa cells; [3]): 66.7%

SMILES: CC(C)Cn1c(-c2ccccc2)cc2cc(C(=O)N3CC(N4CCN(c5ccccn5)CC4)C3)ccc21 [Compound #214]
- Ex. 5 % MAFP @10 μM (HeLa cells; [5]): 93.5 % MAFP

SMILES: O=C(c1ccc(N2CCCCCC2)cc1)N1CC(N2CCN(c3ccccn3)CC2)C1 [compound 3, 1-(4-{[3-(4-Pyridin-2-ylpiperazin-1-yl)azetidin-1-yl]carbonyl}phenyl)azepane]
- Emax at 10 µM (HeLa cells; [3]): 67.3%

SMILES: N#Cc1cccnc1N1CCN(C2CN(C(=O)c3ccc(-c4ccccc4)cc3)C2)CC1 [compound 23, 2-(4-[1-(Biphenyl-4-ylcarbonyl)azetidin-3-yl]piperazin-1-yl}pyridine-3-carbonitrile]
- Emax at 10 µM (HeLa cells; [3]): 96.8%

SMILES: O=C(c1ccc(C2CCCCC2)cc1)N1CC(N2CCN(c3noc4ccccc34)CC2)C1 [compound 33, 3-(4-{1-[(4-Cyclohexylphenyl)carbonyl]azetidin-3-yl}piperazin-1-yl)-1,2-benzisoxazole]
- Emax at 10 µM (HeLa cells; [3]): 33%
- Emax at 10 µM (HeLa cells; [4]): 17.5%

SMILES: CN(CC1CCCCC1)c1ccc(CCC(=O)N2CC(N3CCN(c4ccccn4)CC3)C2)cc1 [compound 40, N-(Cyclohexylmethyl)-N-methyl-4-{3-oxo-3-[3-(4-pyridin-2-ylpiperazin-1-yl)azetidin-1-yl]propyl}aniline]
- Emax at 10 µM (HeLa cells; [3]): 90.4%
- Emax at 10 µM (HeLa cells; [4]): 77.3%

SMILES: Cc1nc2cc(C(=O)N3CC(N4CCN(c5ncccn5)CC4)C3)ccc2n1C1CCCCC1 [compound 17, 1-Cyclohexyl-2-methyl-5-{[3-(4-pyrimidin-2-ylpiperazin-1-yl)azetidin-1-yl]carbonyl}-1H-benzimidazole]
- Emax at 10 µM (HeLa cells; [3]): 83.9%
